The nature of data set [1]: NA (ETV, TFV) plasma PK (NCA) with coadministered bepirovirsen in the Phase 2b B-Clear study. To be noted: human, oral; for concentration at 24 h: B-Clear, mean ± SD, read-out: Ctau; for AUC(0-t): read-out: AUC0-24. Type of data set: in vivo. The method, then:
NA plasma PK parameters were calculated using NCA methods with Phoenix WinNonlin Version 8.1.0.3530. PK parameters included Cmax, AUC from time zero to 24 hours after dosing, and plasma concentration at the end of the dosing interval. Calculations were based on the actual sampling times. PK samples in the B‐Clear study were assayed for bepirovirsen, ETV, and TFV in plasma at the bioanalytical facility Labcorp Drug Development, Shanghai, China, using validated liquid–liquid extraction for bepirovirsen, solid‐phase extraction for ETV, and protein precipitation for TFV assays followed by high‐performance liquid chromatography with mass spectrometric detection. All plasma samples were assayed within the established long‐term frozen, freeze/thaw, and processed extract stability.

For data set [2] the following is noted: cited from earlier work.

Read-outs that look alike come from different tables or passages of the source.

Consider `C=C1[C@H](CO)[C@@H](O)C[C@@H]1n1cnc2c(=O)[nH]c(N)nc21` [ETV, entecavir], for which the Cmax in data set [1] (0.5 mg) is 6.5 ± 2.3 ng/mL; in data set [2] (in vivo, 0.5 mg), 4.2 ng/mL. Besides, the concentration at 24 h in data set [1] (0.5 mg, ETV 0.5 mg once daily with bepirovirsen) stood at 0.5 ± 0.1 ng/mL. Further, the AUC(0-t) in data set [1] (0.5 mg) amounted to 24.4 ± 6.8 ng·h/mL. The tmax entry in data set [2] (in vivo) is listed as “approximately 1 hour”.

For `C[C@H](Cn1cnc2c(N)ncnc21)OCP(=O)(O)O` [TFV, tenofovir], the Cmax is 19.4 ± 5.9 ng/mL in data set [1] (25 mg); 319 ± 95.9 ng/mL in data set [1] (300 mg); 30.0 (24.6) ng/mL in data set [2] (in vivo, 25 mg). The AUC(0-t) in data set [1] (25 mg) amounted to 308 ± 105 ng·h/mL; in data set [1] (300 mg), 2750 ± 661 ng·h/mL. Further, the concentration at 24 h is 10.3 ± 3.5 ng/mL in data set [1] (TFV administered as TAF 25 mg once daily with bepirovirsen) and 57 ± 17.1 ng/mL in data set [1] (TFV administered as TDF 245 or 300 mg once daily with bepirovirsen). Besides, in data set [2] (after dosing), the tmax result was “approximately 1 hour”. Moreover, the AUC0-24 in data set [2] (in vivo, 25 mg) is 400 (35.2) ng•h/mL; in data set [2] (in vivo, 300 mg), 2290 ± 690 ng·h/mL.

The values above are taken from article PMC11975176 (Clinical Pharmacology in Drug Development, 2025).
